The record followed here is the SangsterLogP compilation.

SMILES strings stand for the structures.

The conditions of the first series: pH 2.0.
`O=C1[C@@H]2[C@@H]3[C@H]4C[C@H]5[C@@H]3[C@@H]2C2(OCCO2)[C@H]5[C@@H]14` displayed a logD of 0.51.
`CCN(CC)S(=O)(=O)c1ccc(C(=O)N2CCNC(=O)[C@H]2CC(=O)OC)cc1` had a pH-dependent lipophilicity (logD) of 1.14.
Compound `C[C@H](NC1=NS(=O)(=O)c2ccccc21)C(=O)OCC(=O)/C=C1/N(C)c2ccccc2C1(C)C` showed a logD of 4.21.
`COc1ccccc1NC(=S)N[C@H](NC(=O)c1ccccc1C)C(Cl)(Cl)Cl` had a logD of 3.95.
Same read-out and setting: as for `COCON1C(=O)CN(C(C)=O)[C@H]1c1ccc(Cl)cc1Cl`, the figure is 1.98; as for `CN(C)S(=O)(=O)c1cccc(Cn2c(=O)c(=O)n(Cc3ccccc3)c3ccc(Cl)cc32)c1`, 3.37; as for `COc1ccc(N(CC(=O)N[C@@H]2CCS(=O)(=O)C2)S(=O)(=O)c2ccc(Cl)c(Cl)c2)cc1`, 3.32.
On the same count and under the same terms, as for `COc1ccc([C@@H](C(=O)Nc2ccc3c(c2)OCCO3)N(C)C(=O)Cc2c[nH]c3ccccc23)cc1`, the figure is 3.76; as for `O=C(/C=C/c1ccco1)Nc1ccccc1NC(=O)/C=C/c1ccco1`, 3.79.

The same series, now with this note: pH 5.0.
On to `O=C(Nc1ccc2c(c1)OCO2)[C@@H]1COc2ccccc2O1`, for which the logD came out at 3.28.
Compound `COC(=O)N[C@H](O)C(=O)c1ccccc1` registered a logD of 1.41.
Same read-out and setting: as for `C[C@@H](NC(=O)C1CCN(C(=O)c2ccc(F)cc2)CC1)c1ccccc1`, the figure is 3.48; as for `COCCCNC(=S)N1[C@H](C)CCC[C@H]1C`, 2.8.
Compound `CC1(C)CC(=O)C2=C(C1)OC(N)=C(C#N)[C@H]2c1ccc(C(F)(F)F)cc1` registered a log distribution coefficient (logD) of 4.55.
Regarding `C[C@@]1(c2ccc(Cl)cc2)NC(=S)N2[C@@H]1NC(=S)N2c1ccc(Cl)cc1`, the logD came to 4.94.
`COc1ccc([C@@H]2CCCC[C@H]2O)cc1` gave a pH-dependent lipophilicity (logD) of 2.85.
`CC(C)[C@H]1O[C@H]2CCCC[C@H]2C2=CCCC[C@H]21` had a pH-dependent lipophilicity (logD) of 5.87.
Turning to `O=C(CN1C(=O)c2ccccc2S1(=O)=O)Nc1ccc(S(=O)(=O)N2CCCCCC2)cc1`, the log distribution coefficient (logD) was 4.73.
`O=C(c1cccc(COCC(F)(F)C(F)F)c1)N1CC[C@@H](C(F)(F)F)n2nccc21` returned a pH-dependent lipophilicity (logD) of 4.27.
As to `Cc1cc(Cl)ccc1O[C@@H](C)C(=O)NC1CCCCCC1`, the log distribution coefficient (logD) came out at 5.45.
As for `CCOc1cc([C@H]2[C@@H]3CN(C(=O)OC(C)(C)C)CC=C3C(C#N)=C(N)C2(C#N)C#N)ccc1OC(C)C`, the log distribution coefficient (logD) turned out to be 5.83.
On the same count and under the same terms, as for `CCOC(=O)C1=C(C)NC(=S)N[C@@H]1c1ccc(OCc2ccc(Cl)cc2)c(OCC)c1`, the figure is 5.31.
On to `C[C@]12CC[C@@H]3C[C@@]1(C(=O)NCC(F)(F)F)OC[C@@]32C`, for which the logD was found to be 3.11.
Compound `FC(F)Oc1ccc(NC(=S)NC[C@@H]2CCCO2)cc1Cl` gave a logD of 3.74.
In the case of `CCN(C(=O)COC(=O)/C(=C/c1ccc(Cl)cc1)c1ccc(F)cc1)[C@@H]1CCS(=O)(=O)C1`, the logD was determined as 4.95.
On the same count and under the same terms, in the case of `COC(=O)c1ccc(N(C(=O)C(F)(F)F)[C@@H]2C=CS(=O)(=O)C2)cc1` it was 2.05; in that of `COc1ccc(Oc2c(C(F)(F)F)oc3cc(OC(=O)N4CCOCC4)ccc3c2=O)cc1`, 4.63; in that of `O=C1Nc2cc(C(=O)NC3CC3)ccc2S/C1=C\c1ccccc1`, 4.32.
In turn, `OCC#CC(O)(c1ccc(F)cc1)c1ccc(F)cc1` gave a logD of 3.61.
Compound `Cc1cc(C(=O)CN2C(=O)[C@@H]3CC=CC[C@H]3C2=O)c(C)n1Cc1ccc2c(c1)OCO2` displayed a logD of 4.38.
Turning to `CC[C@H](C(=O)N1CCCN(C(=O)[C@@H](CC)c2ccccc2)CC1)c1ccccc1`, the pH-dependent lipophilicity (logD) was determined as 4.93.
In turn, `COc1ccccc1/C=N/n1c(C)cc(C)c(C#N)c1=O` returned a log distribution coefficient (logD) of 3.08.
In turn, `Cc1ccc([C@@H](O)P(=O)(OCC(C)C)OCC(C)C)cc1` showed a pH-dependent lipophilicity (logD) of 4.44.
`Cc1ccc(CNC(=O)C2CCN(S(=O)(=O)c3ccc4c(c3)OCCCO4)CC2)cc1` displayed a logD of 4.01.
`CCN1C(=O)/C(=C2\SC(=S)N(Cc3ccc(OC)cc3)C2=O)c2cc(Br)ccc21` came in with a log distribution coefficient (logD) of 6.96.
For the compound `CS(=O)(=O)N(CC(=O)Nc1ccccc1C(=O)NCc1ccco1)c1ccc(Cl)cc1`, the log distribution coefficient (logD) was 4.32.
`CCCC(=O)NC[C@@H](C)NC(=O)CCC` showed a log distribution coefficient (logD) of 1.43.
Same read-out and setting: as for `C[C@H]1CN(C(=O)c2csc3c2CCCC3)/C(=N/c2ccc(Cl)cc2)S1`, the figure is 5.53; as for `CCCC1=C(C(=O)OCC)[C@H](c2ccc3c(c2)OCO3)NC(=O)N1`, 3.59; as for `Cc1c(NC(=O)[C@@H]2CCCCN2S(=O)(=O)c2ccc(Cl)cc2)c(=O)n(-c2ccccc2)n1C`, 3.89.
In the case of `N#CC1=C(N)C(C#N)(C#N)[C@@H](c2ccccc2Cl)[C@@H]2CSCC=C12`, the logD turned out to be 4.5.
The compound `CC(C)C(=O)N[C@H](Oc1ccc(C=O)cc1)C(Cl)(Cl)Cl` gave a pH-dependent lipophilicity (logD) of 3.68.
In turn, `CCOC(=O)C1=C(C)NC(=O)C[C@@H]1c1cc(OC)c(OC)cc1Br` had a logD of 3.93.
The compound `O=C1CC[C@H]2CCCC[C@@]2(O)O1` displayed a logD of 1.16.
Turning to `CCOc1ccc(C[C@H]2c3cc(OCC)c(OCC)cc3CCN2C(=O)c2scnc2C)cc1OCC`, the logD was 4.98.
The same measure, in the same setting: as for `O=C(/C=C/c1ccc2c(c1)OCO2)NCCCCNC(=O)/C=C/c1ccc2c(c1)OCO2`, the figure is 4.59; as for `COc1ccc(C(=O)OCC(=O)c2cc(C)n(C[C@@H]3CCCO3)c2C)c(OC)c1`, 4.18.
Turning to `Cc1cc(Cl)ccc1NC(=S)NCCc1c[nH]c2ccccc12`, the log distribution coefficient (logD) was found to be 4.34.
The same measure, in the same setting: as for `Cc1ccc([N+](=O)[O-])cc1N1C(=O)[C@@H]2[C@@H](C1=O)[C@@H](C(=O)C(C)(C)C)N1N=CC=C[C@H]21`, the figure is 3.85; as for `CCCCOc1ccc(/C=C/C(=O)NC(C)C)cc1`, 4.45.

The same series, now with this note: pH 6.0.
`CC1=C(C(=O)N2CCCCC2)C(c2cccs2)C2=C(O)CCCC2=N1` (stereo unspecified): the logD came out at 3.37.

Staying with this series, now noted: pH 6.5.
`O=C(c1ccc(Cl)cc1)N(Cc1ccc(Cl)c(Cl)c1)N1C(=O)[C@@H]2CCCC[C@H]2C1=O`: the pH-dependent lipophilicity (logD) stood at 5.51.
On to `Cc1ccc(NC(=O)COC(=O)/C(=C/c2cccs2)c2cccs2)c(C)c1`, for which the log distribution coefficient (logD) worked out at 3.83.
Compound `N#CC1(C#N)[C@H](c2ccc(Br)s2)[C@@H](C(=O)c2ccccc2)N2c3ccccc3C=C[C@@H]21` came in with a logD of 5.05.
`Cc1cccc(NC(=O)C[C@@H]2S/C(=N\c3c(C)cccc3C)N(C)C2=O)c1` returned a logD of 4.75.
On to `CCN(C(=O)CN1C(=O)[C@H]2CCCC[C@H]2C1=O)c1nnc(-c2ccc(Cl)cc2)s1`, for which the logD came to 4.91.
On the same count and under the same terms, as for `C[C@H]1CCCN(C(=O)COC(=O)COc2cc(Cl)c(Cl)cc2Cl)C1`, the figure is 4.97; as for `CC[C@@H]1CCCCN1C(=O)COc1cccc2c1CCN(Cc1ccc(Cl)cc1)C2=O`, 5.23.

Still in this series, the particulars now being: pH 7.0.
`CC(=O)Nc1ccc([C@H]2C(C#N)=C(N)Oc3c2c(C)nn3-c2cccc(Cl)c2)cc1` gave a logD of 4.93.
Compound `Cn1c([C@@H](C#N)C(=O)[C@@H](Sc2ccccc2)c2ccccc2)nc2ccccc21` displayed a logD of 5.28.

Staying with this series, now noted: pH 7.3.
`CCCn1c2ccccc2c2nnc(SCC(=O)N[C@H](C)c3ccccc3)nc21` had a logD of 4.36.
Same read-out and setting: in the case of `COc1ccc([C@H]2C[C@H](C(F)(F)F)n3ncc(C(=O)N(C)Cc4cnn(C)c4C)c3N2)cc1OC` it was 4.25; in that of `CC1(C)[C@@]2(C)CC[C@]1(C(=O)Nc1ccccc1C(F)(F)F)c1nc3ccccc3nc12`, 6.01.
On to `CC(C)[C@@H](Sc1nnc(C(F)(F)F)n1C)C(=O)NC(N)=O`, for which the logD came out at 2.12.

Staying with this series, now noted: pH 8.0.
For the compound `COc1ccc([C@@H]2Nc3ccccc3C(=O)N2c2ccccc2)cc1COc1ccc(NC(C)=O)cc1`, the pH-dependent lipophilicity (logD) came to 4.65.

Still in this series, the particulars now being: pH 10.0.
For the compound `COc1ccccc1[C@H]1CC(=O)C2=C(C1)NC(C)=C(C(=O)OC1CCCC1)[C@H]2c1ccc(OC(C)=O)cc1`, the log distribution coefficient (logD) stood at 5.81.
Compound `COc1ccc(/N=C/c2ccc(/C=N/c3ccc(OC)cc3)cc2)cc1` gave a logD of 5.24.
For the compound `CC/N=C1\S/C(=C\c2cn(CC(=O)Nc3cccc(C)c3)c3ccccc23)C(=O)N1CC`, the logD worked out at 5.8.
Consider `COc1ccc2c(c1)C(=O)N(Cc1ccco1)C(=O)/C2=C\Nc1c(C)n(C)n(-c2ccccc2)c1=O`, for which the logD worked out at 4.66.
The compound `CCCCSC1=C(C#N)[C@H](c2cccc([N+](=O)[O-])c2)C(C(C)=O)=C(C)N1` returned a logD of 4.44.
As to `CCCC[C@@]1(c2ccccc2)NC(=S)N(c2ccc(C)cc2)N1`, the logD is 5.1.
Same read-out and setting: as for `CCSCCOC(=O)C1=C(C)NC2=C(C(=O)C[C@@H](c3cccs3)C2)[C@@H]1c1ccc(C(=O)OC)cc1`, the figure is 5.24.
`CC1=C(C(=O)OCCc2ccccc2)[C@@H](c2ccc3c(c2)OCO3)C2=C(C[C@H](c3cccs3)CC2=O)N1` gave a pH-dependent lipophilicity (logD) of 5.44.
Take `CCC[C@@H](C)NC(=O)COc1ncnc2sc3c(c12)CC[C@@H](C)C3`: the logD amounted to 4.55.
On the same count and under the same terms, as for `O=C1[C@@H]2C3c4ccccc4C(c4ccccc43)[C@@H]2C(=O)N1c1nccs1`, the figure is 3.83; as for `CCn1c(SCC(=O)NC(C)(C)C)nnc1C1CCCCC1`, 3.2.
Take `CCOC(=O)C1=NN[C@@]2(c3cccc([N+](=O)[O-])c3)C(=O)N(c3cccc(C(F)(F)F)c3)C(=O)[C@H]12`: the pH-dependent lipophilicity (logD) was 4.73.
In the case of `CC[C@@H]1CCCCN1C(=O)[C@H]1CC(c2cc(Cl)c(OC)cc2OC)=NO1`, the logD came to 4.55.

Staying with this series, now noted: pH 10.5.
`COC(=O)CC1=C(C(=O)OC)[C@]2(C(=O)Nc3ccccc32)C(C(=O)OCc2ccccc2)=C(N)O1` returned a logD of 4.25.
Compound `C[C@@H](c1nc2c3cnn(-c4ccccc4)c3ncn2n1)n1cc([N+](=O)[O-])cn1` displayed a log distribution coefficient (logD) of 3.73.
For `C=CCn1c(SCC(=O)N2C[C@@]3(C)C[C@@H]2CC(C)(C)C3)nc2sc(CC)cc2c1=O`, the log distribution coefficient (logD) was 6.04.
`O=[N+]([O-])c1ccc(-c2nc3nc4ccccc4nc3n2C[C@@H]2CCCO2)cc1` had a logD of 3.75.
Still for that read-out and setting: in the case of `Cc1cc2c(c(=O)o1)[C@@H](c1cccc(F)c1F)C(C#N)=C(N)O2` it was 3.1.
The compound `COC(=O)c1c(C)sc2c1OC(N)=C(C#N)[C@@H]2c1cc(Br)cs1` registered a pH-dependent lipophilicity (logD) of 5.06.
Compound `CC(C)=CCCC1=NN(C=O)[C@@](C)(CCC=C(C)C)C1` had a log distribution coefficient (logD) of 5.02.
Same read-out and setting: as for `CCOc1cc(/C=N/n2cnc3sc(C)c(C)c3c2=O)cc(Br)c1OCC(N)=O`, the figure is 4.98.
